Data from patent US10149839B2, “Chemical compounds” (AstraZeneca AB, priority 2016, dated 2018).
In brackets after ≈: the same amount, converted by molar mass.

Assays:
[1] = Human plasma protein binding (equilibrium dialysis); assay type: in vitro ADME; details: dialysis 18 hours
[2] = Thermodynamic solubility (shake flask); assay type: physicochemical; details: aqueous phosphate buffer pH 7.4, 24 hours
[3] = Log D (shake flask, 1-octanol/aqueous buffer); details: pH 7.4, 1-octanol/aqueous buffer
[4] = biological target: T1, Estrogen Receptor (ERα) in MCF-7 cells (Homo sapiens (Human), UniProt P03372); test: MCF-7 ER down-regulation assay (immuno-fluorescence); assay type: cell-based; details: for IC50: 18-22 hours incubation; for % downregulation: shown in brackets where not >90%
T1 sequence (P03372 whole entry): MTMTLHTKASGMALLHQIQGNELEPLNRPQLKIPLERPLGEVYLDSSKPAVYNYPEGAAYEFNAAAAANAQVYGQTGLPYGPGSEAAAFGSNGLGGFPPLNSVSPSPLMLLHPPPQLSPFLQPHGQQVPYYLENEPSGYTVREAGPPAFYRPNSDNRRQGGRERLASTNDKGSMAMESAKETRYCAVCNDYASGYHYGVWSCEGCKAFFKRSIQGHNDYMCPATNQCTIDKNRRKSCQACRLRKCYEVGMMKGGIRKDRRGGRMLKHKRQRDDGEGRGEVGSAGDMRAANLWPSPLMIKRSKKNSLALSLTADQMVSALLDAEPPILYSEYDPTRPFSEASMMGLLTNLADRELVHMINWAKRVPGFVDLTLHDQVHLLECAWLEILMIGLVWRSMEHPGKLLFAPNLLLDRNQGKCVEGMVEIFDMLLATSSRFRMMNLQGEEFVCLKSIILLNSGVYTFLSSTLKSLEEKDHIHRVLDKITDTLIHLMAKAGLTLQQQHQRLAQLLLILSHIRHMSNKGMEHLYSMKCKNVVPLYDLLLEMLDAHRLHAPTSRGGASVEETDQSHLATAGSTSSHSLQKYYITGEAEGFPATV

physchem = details: 1-octanol/aqueous buffer, pH 7.4
[5] = Human hepatocyte assay (metabolic stability); assay type: in vitro ADME; details: cryopreserved pooled human hepatocytes (LiverPool 10 Donor), in vitro intrinsic clearance
[6] = Human Caco-2 bidirectional permeability A to B and B to A; assay type: in vitro ADME
[7] = biological target: T1, Estrogen Receptor (ERα) in MCF-7 cells; test: Western blotting assay, MCF-7 cells; assay type: cell-based; details: compound 100 nM, 48 h, normalised to 100 nM fulvestrant (100%)
[8] = biological target: estrogen receptor (ERα) in CAMA-1 cells (Homo sapiens (Human), UniProt P03372); test: Western blotting assay, CAMA-1 cells; assay type: cell-based; details: compound 100 nM, 48 h, normalised to 100 nM fulvestrant (100%)
Chain of estrogen receptor (ERα) in CAMA-1 cells (P03372 whole entry): as above

[9] = Human Caco-2 passive permeability A to B Papp; assay type: in vitro ADME; details: apical pH 6.5, basolateral pH 7.4, with efflux transporter inhibitor cocktail
[10] = aqueous phosphate buffer, 25 °C, pH 7.4, aqueous buffer, thermodynamic from solid

Compound | Human plasma protein binding (% free) [1] | solubility at 24 h ([2]; 25° C.) | LogD pH 7.4 [3] | IC50 [4] | % downregulation [4] | logD (physchem) | solubility at 24 h [2, 10] | hepatocyte CLint at 1 µM [5] | Papp at 2 h ([6]; Caco-2, 2 hours, pH 7.4) | efflux ratio at 2 h ([6]; Papp(B-A)/Papp(A-B), Caco-2, pH 7.4) | MCF7 Western % ER deg vs Fv [7] | CAMA1 Western % ER deg vs Fv [8] | Papp at 2 h [9]
C[C@@H]1Cc2c([nH]c3ccccc23)[C@@H](c2c(F)cc(OCCNCCCF)cc2F)N1CC(C)(F)CO (single isomer, unassigned) [Example 18] | 2.4 % free | 639 µM (≈ 324 µg/mL) | 2.7 | 0.65 nM | (85%) | – | – | – | – | – | – | – | –
COCC(C)(F)CN1[C@H](c2c(F)cc(OCCNCCCF)cc2F)c2[nH]c3ccccc3c2C[C@H]1C (single isomer, unassigned) [Example 51] | 0.41 % free | 53 µM (≈ 27.6 µg/mL) | 3.8 | – | – | – | – | – | – | – | – | – | –
C[C@@H]1Cc2c([nH]c3ccccc23)[C@@H](c2c(F)cc(OCC(CO)NCCCF)cc2F)N1CC(C)(C)F (single isomer, unassigned) [Example 52] | 0.47 % free | 14 µM (≈ 7.3 µg/mL) | >4.1 | 0.24 nM | (79%) | – | – | – | – | – | – | – | –
C[C@@H]1Cc2c([nH]c3ccccc23)[C@@H](c2c(F)cc(OCC(CO)NCCCF)cc2F)N1CC(C)(C)F (single isomer, unassigned) [Example 53] | 0.55 % free | 23 µM (≈ 12 µg/mL) | >4.2 | 0.14 nM | – | – | – | – | – | – | – | – | –
COc1cc(NCCNCCCF)ccc1[C@@H]1c2[nH]c3ccccc3c2C[C@@H](C)N1CC1(F)COC1 [Example 47, N1-(4-((1R,3R)-2-((3-fluorooxetan-3-yl)methyl)-3-methyl-2,3,4,9-tetrahydro-1H-pyrido[3,4-b]indol-1-yl)-3-methoxyphenyl)-N2-(3-fluoropropyl)ethane-1,2-diamine] | 5.0 % free | – | – | 0.24 nM | – | 2.5 | 840 µM (≈ 419 µg/mL) | – | – | – | 90% | 81% | –
COc1cc(OCCNCCCF)ncc1[C@@H]1c2[nH]c3ccccc3c2C[C@@H](C)N1CC(F)(F)CO [Example 64, 2,2-difluoro-3-((1R,3R)-1-(6-(2-((3-fluoropropyl)amino)ethoxy)-4-methoxypyridin-3-yl)-3-methyl-1,3,4,9-tetrahydro-2H-pyrido[3,4-b]indol-2-yl)propan-1-ol] | 12 % free | – | – | 0.21 nM | – | 2.2 | 849 µM (≈ 430 µg/mL) | – | – | – | 73% | 87% | –

Now from value to molecule:

Human plasma protein binding (% free) [1] | solubility at 24 h ([2]; 25° C.) | LogD pH 7.4 [3] | IC50 [4] | % downregulation [4] | logD (physchem) | solubility at 24 h [2, 10] | hepatocyte CLint at 1 µM [5] | Papp at 2 h ([6]; Caco-2, 2 hours, pH 7.4) | efflux ratio at 2 h ([6]; Papp(B-A)/Papp(A-B), Caco-2, pH 7.4) | MCF7 Western % ER deg vs Fv [7] | CAMA1 Western % ER deg vs Fv [8] | Papp at 2 h [9] | Compound
1.8 % free | 149 µM (≈ 73.8 µg/mL) | 3.1 | – | – | – | – | – | – | – | – | – | – | C[C@@H]1Cc2c([nH]c3ccccc23)[C@@H](c2c(F)cc(OCCNCCCF)cc2F)N1CC(F)CF (single isomer, unassigned) [Example 16]
2.7 % free | 65 µM (≈ 29.9 µg/mL) | 3.2 | 0.38 nM | – | – | – | – | – | – | – | – | – | C[C@@H]1Cc2c([nH]c3ccccc23)[C@@H](c2ccc(OCCNCCCF)cc2)N1C[C@H](F)CF (single isomer, unassigned) [Example 26]
1.4 % free | – | – | 0.94 nM | – | 4.6 | 34 µM (≈ 15.5 µg/mL) | < 1 µL/min/1e6 cells | – | – | – | – | – | CC(C)CN1[C@H](c2ccc(OCCNCCC(F)F)cc2)c2[nH]c3ccccc3c2C[C@H]1C [Example 1, 3,3-difluoro-N-(2-(4-((1R,3R)-2-isobutyl-3-methyl-2,3,4,9-tetrahydro-1H-pyrido[3,4-b]indol-1-yl)phenoxy)ethyl)propan-1-amine]
1.5 % free | – | – | 0.43 nM | – | 3.6 | 301 µM (≈ 132 µg/mL) | < 1 µL/min/1e6 cells | – | – | – | – | – | CC(C)CN1[C@H](c2ccc(OCCNCCCF)cc2)c2[nH]c3ccccc3c2C[C@H]1C [Example 2, 3-fluoro-N-(2-(4-((1R,3R)-2-isobutyl-3-methyl-2,3,4,9-tetrahydro-1H-pyrido[3,4-b]indol-1-yl)phenoxy)ethyl)propan-1-amine]
2.0 % free | – | – | 1.2 nM | – | 3.4 | 135 µM (≈ 61.6 µg/mL) | 5 µL/min/1e6 cells | – | – | – | – | – | C[C@@H]1Cc2c([nH]c3ccccc23)[C@@H](c2ccc(OCCNCCCF)cn2)N1CC(C)(C)F [Example 30, 3-fluoro-N-(2-((6-((1S,3R)-2-(2-fluoro-2-methylpropyl)-3-methyl-2,3,4,9-tetrahydro-1H-pyrido[3,4-b]indol-1-yl)pyridin-3-yl)oxy)ethyl)propan-1-amine]
5.8 % free | – | – | 0.17 nM | – | 2.7 | 854 µM (≈ 407 µg/mL) | 5 µL/min/1e6 cells | 3.2 ×10⁻⁶ cm/s | 1.8 | 90% | 85% | 14 ×10⁻⁶ cm/s | COc1cc(OCCNCCCF)ncc1[C@@H]1c2[nH]c3ccccc3c2C[C@@H](C)N1CC(F)F [Example 40, N-(2-((5-((1R,3R)-2-(2,2-difluoroethyl)-3-methyl-2,3,4,9-tetrahydro-1H-pyrido[3,4-b]indol-1-yl)-4-methoxypyridin-2-yl)oxy)ethyl)-3-fluoropropan-1-amine]
1.0 % free | – | – | 1.2 nM | – | 3.4 | 411 µM (≈ 196 µg/mL) | – | – | – | 31% | 60% | – | COc1nc(OCCNCCCF)ccc1[C@@H]1c2[nH]c3ccccc3c2C[C@@H](C)N1CC(F)F [Example 75, N-(2-((5-((1R,3R)-2-(2,2-difluoroethyl)-3-methyl-2,3,4,9-tetrahydro-1H-pyrido[3,4-b]indol-1-yl)-6-methoxypyridin-2-yl)oxy)ethyl)-3-fluoropropan-1-amine]
